Data from patent publication US20070293399A1, “SUBSTITUTED DIAMINO-1,3,5-TRIAZINES, PROCESSES FOR THEIR PREPARATION AND THEIR USE AS HERBICIDES AND CROP GROWTH REGULATORS” (Bayer CropScience AG, priority 2006, published 2007).

Key:
[1] = system: Stellaria media, Lolium multiflorum, Amaranthus retroflexus, Sinapis alba, Avena sativa and Setaria viridis; experiment: Pre-emergence herbicidal action (greenhouse pot test); type: in vivo; details: application rate of 1 kg or less of active substance per hectare; scored visually after 3 to 4 weeks in comparison to untreated controls
Excerpt: Seeds or rhizome pieces of mono- and dicotyledonous weed plants were placed in sandy loam in plastic pots and covered with soil. The inventive compounds, which have been formulated in the form of wettable powders or emulsion concentrates, were then applied to the surface of the covering soil as an aqueous suspension or emulsion in different dosages with an application rate of from 600 to 800 l/ha of water (converted).

[2] = system: Sinapis alba, Echinochloa crus-galli, Lolium multiflorum, Stellaria media, Cyperus iria, Amaranthus retroflexus, Setaria viridis, Avena sativa, Lamium …; experiment: Post-emergence herbicidal action (greenhouse pot test); type: in vivo; details: application rate of 1 kg and less of active substance per hectare; treated at three-leaf stage; scored visually after approx. 3 to 4 weeks in comparison to untreated controls
Description: Seeds or rhizome pieces of mono- and dicotyledonous weeds were placed in sandy loam in plastic pots, covered with soil and grown in a greenhouse under good growth conditions. Three weeks after the sowing, the test plants were treated at the three-leaf stage. The inventive compounds formulated as spray powders or as emulsion concentrates were sprayed onto the green plant parts in various dosages with an application rate of from 600 to 800 l/ha of water (converted). After the test plants had been left to stand in the greenhouse under optimal growth conditions for approx. 3 to 4 weeks, the action of the preparations was scored visually in comparison to untreated controls. The inventive compositions also had good post-emergence herbicidal activity against a wide spectrum of economically important gramineous and broadleaf weeds.

Structure (SMILES)	herbicidal action against harmful plants in the pre-emergence method [1]	herbicidal action against harmful plants in the post-emergence method [2]
CC1Cc2ccc(F)cc2C1Nc1ncnc(NC(=O)C(Cl)(Cl)Cl)n1 (racemic) [Compound 1.2]	very good herbicidal action	very good herbicidal action
COCCNC(=O)Nc1nc(NC2c3cc(C)ccc3CC2C)nc(C(C)F)n1 (centres unmarked) [Compound 2.104]	very good herbicidal action	very good herbicidal action
CCC(=O)Nc1ncnc(N[C@@H]2CCCc3ccccc32)n1 [Compound 2.2]	very good herbicidal action	very good herbicidal action
CCOC(CNC(=O)Nc1nc(NC2c3cc(C)ccc3CC2C)nc(C(C)F)n1)OCC (centres unmarked) [Compound 2.106]	very good herbicidal action	very good herbicidal action
CC(=Nc1nc(N[C@H]2c3cc(C)ccc3C[C@H]2C)nc(C(F)F)n1)N(C)C [Compound 2.177]	very good herbicidal action	very good herbicidal action
CCOC(C)=Nc1nc(N[C@H]2c3cc(C)ccc3C[C@H]2C)nc(C(F)F)n1 [Compound 2.191]	very good herbicidal action	very good herbicidal action
CCC(=O)Nc1nc(N[C@H]2c3cc(C)ccc3C[C@@H]2C)nc(C(F)F)n1 [Compound 2.150]	very good herbicidal action	very good herbicidal action
CC(=O)Nc1ncnc(NC2c3cccc(C)c3CC2C)n1 (racemic) [Compound 1.46]	very good herbicidal action	very good herbicidal action
C[C@@H](F)c1nc(C=O)nc(N[C@@H]2CCCc3ccccc32)n1 [Compound 2.193]	very good herbicidal action	very good herbicidal action
C[C@@H](F)c1nc(NC(=O)C(F)(F)F)nc(N[C@@H]2CCCc3ccccc32)n1 [Compound 2.32]	very good herbicidal action	very good herbicidal action
CCC(=O)Nc1ncnc(NC2c3cc(F)ccc3CC2C)n1 (racemic) [Compound 1.5]	very good herbicidal action	very good herbicidal action
Cc1ccc2c(c1)C(Nc1nc(NC(=O)C3CC3)nc(C(C)F)n1)C(C)C2 (centres unmarked) [Compound 2.67]	very good herbicidal action	very good herbicidal action
Cc1ccc2c(c1)[C@H](Nc1nc(NC(=S)NCCc3ccc(Cl)cc3)nc([C@@H](C)F)n1)[C@@H](C)C2 [Compound 2.134]	very good herbicidal action	very good herbicidal action
Cc1ccc(NC(=O)Nc2nc(N[C@@H]3CCCc4ccccc43)nc([C@@H](C)F)n2)cc1 [Compound 2.59]	very good herbicidal action	very good herbicidal action
COC(=O)Nc1nc(CF)nc(NC2c3cc(F)ccc3CC2C)n1 (racemic) [Compound 1.11]	very good herbicidal action	very good herbicidal action
Cc1ccc2c(c1)C(Nc1nc(NC(=O)Nc3ccc(F)cc3)nc(C(C)F)n1)C(C)C2 (centres unmarked) [Compound 2.117]	very good herbicidal action	very good herbicidal action
C[C@@H](F)c1nc(N[C@@H]2CCCc3ccccc32)nc(N(CCC#N)CCC#N)n1 [Compound 2.39, 3,3′-({4-[(1R)-1-Fluoroethyl]-6-[(1R)-1,2,3,4-tetrahydronaphth-1-ylamino]-1,3,5-triazin-2-yl}imino)dipropanenitrile]	very good herbicidal action	very good herbicidal action

Structure (SMILES)	herbicidal action against harmful plants in the pre-emergence method [1]	herbicidal action against harmful plants in the post-emergence method [2]
CC(=O)Nc1nc(C)nc(N[C@H]2c3cc(C)ccc3C[C@@H]2C)n1 [Compound 2.33]	very good herbicidal action	very good herbicidal action
Cc1ccc2c(c1)[C@H](Nc1nc(N=CN3CCCCC3)nc(C(F)F)n1)[C@H](C)C2 [Compound 2.181]	very good herbicidal action	very good herbicidal action
CCC(=O)Nc1nc(N[C@H]2c3cc(C)ccc3C[C@@H]2C)nc([C@@H](C)F)n1 [Compound 2.14]	very good herbicidal action	very good herbicidal action
Cc1ccc2c(c1)C(Nc1ncnc(NC(=O)C3CC3)n1)C(C)C2 (centres unmarked) [Compound 2.75]	very good herbicidal action	very good herbicidal action
CC1Cc2ccc(F)cc2C1Nc1ncnc(NC(=O)C(F)(F)F)n1 (racemic) [Compound 1.3]	very good herbicidal action	very good herbicidal action
CC(=O)Nc1nc(NC2CCOc3c(C)cc(F)cc32)nc(C(C)Cc2ccc(F)cc2)n1 (racemic) [Compound 1.33]	very good herbicidal action	very good herbicidal action
Cc1ccc2c(c1)[C@H](Nc1ncnc(NC(=O)NC(C)(C)C)n1)[C@@H](C)C2 [Compound 2.43, N-(Tert-butyl)-N′-(4-{[(1R,2S)-2,6-dimethyl-2,3-dihydro-1H-inden-1-yl]amino}-1,3,5triazin-2-yl)urea]	very good herbicidal action	very good herbicidal action
Cc1ccc2c(c1C)OCCC2Nc1nc(NC(=O)C2CC2)nc(C2CC2)n1 (racemic) [Compound 1.70]	very good herbicidal action	very good herbicidal action
Cc1ccc2c(c1)C(Nc1nc(NC(=O)NCc3ccccc3)nc(C(C)F)n1)C(C)C2 (centres unmarked) [Compound 2.103]	very good herbicidal action	very good herbicidal action
Cc1ccc2c(c1)[C@H](Nc1ncnc(N=CN(C)C)n1)[C@@H](C)C2 [Compound 2.155]	very good herbicidal action	very good herbicidal action
Cc1ccc2c(c1)[C@H](Nc1ncnc(NC(=O)C(F)(F)F)n1)[C@@H](C)C2 [Compound 2.12, N-(4-{[(1R,2S)-2,6-Dimethyl-2,3-dihydro-1H-inden-1-yl]-amino}-1,3,5-triazin-2-yl)-2,2,2-trifluoroacetamide]	very good herbicidal action	very good herbicidal action
Cc1ccc2c(c1)[C@H](Nc1nc(NC(=S)NC3CCCCC3)nc([C@@H](C)F)n1)[C@@H](C)C2 [Compound 2.139]	very good herbicidal action	very good herbicidal action
Cc1ccc2c(c1)[C@H](Nc1nc(C)nc(N=CN(C)C)n1)[C@@H](C)C2 [Compound 2.170]	very good herbicidal action	very good herbicidal action
COc1ccc(NC(=S)Nc2nc(NC3c4cc(C)ccc4CC3C)nc(C(C)F)n2)cc1 (centres unmarked) [Compound 2.130]	very good herbicidal action	very good herbicidal action
CCNC(=S)Nc1nc(N[C@H]2c3cc(C)ccc3C[C@@H]2C)nc([C@@H](C)F)n1 [Compound 2.133]	very good herbicidal action	very good herbicidal action
Cc1ccc2c(c1)[C@H](Nc1nc(NC(=S)NCc3ccco3)nc([C@@H](C)F)n1)[C@@H](C)C2 [Compound 2.138]	very good herbicidal action	very good herbicidal action
CC1Cc2ccc(F)cc2C1Nc1nc(CF)nc(NC(=O)C(F)(F)F)n1 (racemic) [Compound 1.13]	very good herbicidal action	very good herbicidal action
